Experimental data published in patent US20150307938A1, “METHOD TO IDENTIFY A NOVEL CLASS OF IMMUNOLOGIC ADJUVANTS” (Lancell, L.L.C., priority 2011, published 2015).

System: skin
Experiment: Affymetrix microarray of skin, DBP-4 hr and analogs vs. untreated; gene selection by log-2 fold change, Wilcoxon, Kendall tau (Tables 8, 9)
Type: in vivo, mouse
Settings: for Kendall: Kendall tau coefficient

SMILES: CCCCOC(=O)c1ccccc1C(=O)OCCCC [DBP, dibutylphthalate]
- DBP Expression: Socs2 (NM_001168655_at, DBP-4 hr): 8.92
- DBP Expression: Socs2 (NM_001168656_at, DBP-4 hr): 8.92
- DBP Expression: Socs2 (NM_001168657_at, DBP-4 hr): 8.92
- DBP Expression: Arid5a (NM_001172205_at, DBP-4 hr): 7.61
- DBP Expression: Arid5a (NM_001172206_at, DBP-4 hr): 7.61
- DBP Expression: Nfkb2 (NM_001177369_at, DBP-4 hr): 8.26
- DBP Expression: Nfkb2 (NM_001177370_at, DBP-4 hr): 8.26
- DBP Expression: Cd44 (NM_001177785_at, DBP-4 hr): 9.82
- DBP Expression: Cd44 (NM_001177786_at, DBP-4 hr): 9.82
- DBP Expression: Cd44 (NM_001177787_at, DBP-4 hr): 9.82
- DBP Expression: Smox (NM_001177833_at, DBP-4 hr): 8.18
- DBP Expression: Smox (NM_001177834_at, DBP-4 hr): 8.24
- DBP Expression: Smox (NM_001177835_at, DBP-4 hr): 8.44
- DBP Expression: Smox (NM_001177836_at, DBP-4 hr): 8.07
- DBP Expression: Smox (NM_001177837_at, DBP-4 hr): 8.07
- DBP Expression: Smox (NM_001177838_at, DBP-4 hr): 8.44
- DBP Expression: Smox (NM_001177839_at, DBP-4 hr): 8.07
- DBP Expression: Smox (NM_001177840_at, DBP-4 hr): 8.44
- DBP Expression: Pde4b (NM_001177980_at, DBP-4 hr): 8.96
- DBP Expression: Pde4b (NM_001177981_at, DBP-4 hr): 8.96
- DBP Expression: Pde4b (NM_001177982_at, DBP-4 hr): 8.96
- DBP Expression: 5730408K05Rik (NR_027866_at, DBP-4 hr): 8.14
- DBP Expression: Arid5a (NR_033310_at, DBP-4 hr): 7.61
- Wilcoxon (Socs2 NM_007706_at, DBP-4 hr vs. untreated): No
- Kendall (Socs2 NM_007706_at): No
- Wilcoxon (Socs3 NM_007707_at, DBP-4 hr vs. untreated): Yes
- Kendall (Socs3 NM_007707_at): No
- Wilcoxon (Timp1 NM_001044384_at, DBP-4 hr vs. untreated): Yes
- Kendall (Timp1 NM_001044384_at): No
- DBP Expression: LOC100504977 (XM_003085794_at, DBP-4 hr): 8.47
- Wilcoxon: 1810046J19Rik (gene 1810046J19Rik, NM_025559_at, DBP-4 hr vs. untreated): No
- Kendall: 1810046J19Rik (gene 1810046J19Rik, NM_025559_at, gene expression vs. output): Yes
- Wilcoxon: 4933434E20Rik (gene 4933434E20Rik, NM_025762_at, DBP-4 hr vs. untreated): No
- Kendall: 4933434E20Rik (gene 4933434E20Rik, NM_025762_at, gene expression vs. output): Yes
- Log2 Expression Level (gene #1 of Table 8): 6.82
- Log2 Expression Level (gene #2 of Table 8): 6.93
- Log2 Expression Level (gene #3 of Table 8): 9.82
- Log2 Expression Level (gene #4 of Table 8): 9.82
- Log2 Expression Level (gene #5 of Table 8): 7.53
- Log2 Expression Level (gene #6 of Table 8): 6.91
- Log2 Expression Level (gene #7 of Table 8): 6.26
- Log2 Expression Level (gene #8 of Table 8): 6.91
- Log2 Expression Level (gene #9 of Table 8): 6.91
- Log2 Expression Level (gene #10 of Table 8): 6.91
- Log2 Expression Level (gene #11 of Table 8): 6.26
- Log2 Expression Level (gene #12 of Table 8): 6.26
- Log2 Expression Level (gene #13 of Table 8): 6.26
- Log2 Expression Level (gene #14 of Table 8): 6.13
- Log2 Expression Level (gene #15 of Table 8): 6.13
- Log2 Expression Level (gene #16 of Table 8): 7.45
- Log2 Expression Level (gene #17 of Table 8): 9.48
- Log2 Expression Level (gene #18 of Table 8): 9.48
- Log2 Expression Level (gene #19 of Table 8): 9.61
- Log2 Expression Level (gene #20 of Table 8): 11.11
- Log2 Expression Level (gene #21 of Table 8): 9.27
- Log2 Expression Level (gene #22 of Table 8): 8.24
- Log2 Expression Level (gene #23 of Table 8): 6.89
- Log2 Expression Level (gene #24 of Table 8): 8.10
- Log2 Expression Level (gene #25 of Table 8): 8.10
- Log2 Expression Level (gene #26 of Table 8): 8.56
- Log2 Expression Level (gene #27 of Table 8): 8.56
- Log2 Expression Level (gene #28 of Table 8): 8.56
- Log2 Expression Level (gene #29 of Table 8): 7.22
- Log2 Expression Level (gene #30 of Table 8): 8.92
- Log2 Expression Level (gene #31 of Table 8): 8.92
- Log2 Expression Level (gene #32 of Table 8): 8.92
- Log2 Expression Level (gene #33 of Table 8): 6.54
- Log2 Expression Level (gene #34 of Table 8): 7.61
- Log2 Expression Level (gene #35 of Table 8): 7.61
- Log2 Expression Level (gene #36 of Table 8): 9.82
- Log2 Expression Level (gene #37 of Table 8): 9.82
- Log2 Expression Level (gene #38 of Table 8): 9.82
- Log2 Expression Level (gene #39 of Table 8): 8.18
- Log2 Expression Level (gene #40 of Table 8): 8.24
- Log2 Expression Level (gene #41 of Table 8): 8.44
- Log2 Expression Level (gene #42 of Table 8): 8.07
- Log2 Expression Level (gene #43 of Table 8): 8.07
- Log2 Expression Level (gene #44 of Table 8): 8.44
- Log2 Expression Level (gene #45 of Table 8): 8.07
- Log2 Expression Level (gene #46 of Table 8): 8.44
- Log2 Expression Level (gene #47 of Table 8): 8.96
- Log2 Expression Level (gene #48 of Table 8): 8.96
- Log2 Expression Level (gene #49 of Table 8): 8.96
- Log2 Expression Level (gene #50 of Table 8): 10.11
- Log2 Expression Level (gene #51 of Table 8): 8.84
- Log2 Expression Level (gene #52 of Table 8): 10.36
- Log2 Expression Level (gene #53 of Table 8): 8.58
- Log2 Expression Level (gene #54 of Table 8): 10.63
- Log2 Expression Level (gene #55 of Table 8): 7.56
